Results taken from US9624241B2 (Incyte Corporation, priority 2013, dated 2017).
Counter-ions that a name gives are not always drawn. Like-named read-outs stand apart in the source and are kept apart here.

Tests used:
[1] = target: BRD4-BD1 (Homo sapiens (Human), UniProt O60885); experiment: BRD4 AlphaScreen Assay (Example A2), BRD4-BD1; assay type: binding
Experimental: (§1) BRD4-BD1 and BRD4-BD2 assays were conducted in white 384-well polystyrene plate in a final volume of 40 μL for BD1 and 60 μL for BD2. Inhibitors were first serially diluted in DMSO and added to the plate wells before the addition of other reaction components. […] The assays were carried out at room temperature in the assay buffer (50 mM Tris-HCl, pH 7.5, 0.01% Tween-20, 0.01% BSA, 5 mM DTT), containing 50 nM Biotin-labeled tetra-acetylated histone H4 peptide (H4Ac4) and BRD4-BD1 or BRD4-BD2 protein at concentration less than 1 nM. […] After plate sealing, the plate was incubated in the dark at room temperature for 75 min. before reading on a PHERAstar FS plate reader (BMG Labtech). IC50 determination was performed by fitting the curve of percent control activity versus the log of the inhibitor concentration using the GraphPad Prism 5.0 software.

[2] = target: BRD4-BD2 (Homo sapiens (Human), UniProt O60885); experiment: BRD4 AlphaScreen Assay (Example A2), BRD4-BD2; assay type: binding
Experimental: as §1

[3] = Assay A2, AlphaScreen, BRD4-BD1, read-out: BRD4 BD-1 enzyme IC50
[4] = Assay A2, AlphaScreen, BRD4-BD2, read-out: BRD4 BD-2 enzyme IC50

Row | Structure (SMILES) | IC50 [1, 3] [nM] | IC50 [2, 4] [nM] | IC50 [1] [nM] | IC50 [2] [nM] | IC50 ([2]; read-out: BRD4 BD-2 enzyme IC50) [nM]
1 | Cc1noc(C)c1-c1cc(-c2cccnc2)c2[nH]c(=O)n3c2c1OCC3c1ccccc1 (stereo not drawn) [Example 52, 7-(3,5-Dimethylisoxazol-4-yl)-4-phenyl-9-pyridin-3-yl-4,5-dihydroimidazo[1,5,4-de][1,4]benzoxazin-2(1H)-one] | < 100 | < 100 |  |  | 
2 | Cc1noc(C)c1-c1cc(F)c2[nH]c(=O)n3c2c1OCC3c1ccccn1 (stereo not drawn) [Example 265A, 7-(3,5-dimethylisoxazol-4-yl)-9-fluoro-4-pyridin-2-yl-4,5-dihydroimidazo[1,5,4-de][1,4]benzoxazin-2(1H)-one] | 1000 to 10000 | 1000 to 10000 |  |  | 
3 | Cc1noc(C)c1-c1cc(Br)c2[nH]c(=O)n3c2c1OCC3c1ccccn1 (single isomer, unassigned) [Example 267A, 9-bromo-7-(3,5-dimethylisoxazol-4-yl)-4-pyridin-2-yl-4,5-dihydroimidazo[1,5,4-de][1,4]benzoxazin-2(1H)-one] | 1000 to 10000 | 1000 to 10000 |  |  | 
4 | Cc1noc(C)c1-c1cc(CO)c2[nH]c(=O)n3c2c1OCC3c1ccccn1 (stereo not drawn) [Example 254, 7-(3,5-Dimethylisoxazol-4-yl)-9-(hydroxymethyl)-4-pyridin-2-yl-4,5-dihydroimidazo[1,5,4-de][1,4]benzoxazin-2(1H)-one] | < 100 | < 100 |  |  | 
5 | CC(=O)N1CCC(c2nc3ccc(-c4c(C)noc4C)c4c3n2[C@@H](c2ccccn2)CO4)CC1 [Example 109, (4S)-2-(1-Acetylpiperidin-4-yl)-7-(3,5-dimethylisoxazol-4-yl)-4-pyridin-2-yl-4,5-dihydroimidazo[1,5,4-de][1,4]benzoxazine] | < 100 | < 100 |  |  | 
6 | CC(=O)N1CCC(c2nc3ccc(-c4c(C)noc4C)c4c3n2[C@@H](c2ccccn2)CO4)C1 (single isomer, unassigned; diastereomer 1) [Example 113A] | < 100 | < 100 |  |  | 
7 | Cc1noc(C)c1-c1ccc2[nH]c(=O)n3c2c1OC(C(=O)NCCO)C3c1ccccc1 (single isomer, unassigned) [Example 48B, 7-(3,5-Dimethylisoxazol-4-yl)-N-(2-hydroxyethyl)-2-oxo-4-phenyl-1,2,4,5-tetrahydroimidazo[1,5,4-de][1,4]benzoxazine-5-carboxamide] | 100 to 1000 | < 100 |  |  | 
8 | CNC(=O)C1Oc2c(-c3c(C)noc3C)ccc3[nH]c(=O)n(c23)C1c1ccccn1 (stereo not drawn) [Example 76, 7-(3,5-dimethylisoxazol-4-yl)-N-methyl-2-oxo-4-pyridin-2-yl-1,2,4,5-tetrahydroimidazo[1,5,4-de][1,4]benzoxazine-5-carboxamide 2,2,2-trifluoroacetate] | 100 to 1000 | 100 to 1000 |  |  | 
9 | Cc1noc(C)c1-c1cc(C(C)O)c2[nH]c(=O)n3c2c1OC[C@@H]3c1ccccn1 (single isomer, unassigned) [Example 144A] | 100 to 1000 | < 100 |  |  | 
10 | Cc1noc(C)c1-c1cc(-c2ccccc2)c2[nH]c(=O)n3c2c1OCC3c1ccccc1 (stereo not drawn) [Example 43, 7-(3,5-Dimethylisoxazol-4-yl)-4,9-diphenyl-4,5-dihydroimidazo[1,5,4-de][1,4]benzoxazin-2(1H)-one] | < 100 | < 100 |  |  | 
11 | CCS(=O)(=O)NC1CN(c2nc3ccc(-c4c(C)noc4C)c4c3n2[C@@H](c2ccccn2)CO4)C1 [Example 238, N-{1-[(4S)-7-(3,5-dimethylisoxazol-4-yl)-4-pyridin-2-yl-4,5-dihydroimidazo[1,5,4-de][1,4]benzoxazin-2-yl]azetidin-3-yl}ethanesulfonamide] | < 100 | < 100 |  |  | 
12 | Cc1noc(C)c1-c1ccc2nc(C3=CCN(C(=O)OC(C)(C)C)C3)n3c2c1OC[C@@H]3c1ccccn1 [Example 98, tert-Butyl 3-[(4S)-7-(3,5-dimethylisoxazol-4-yl)-4-pyridin-2-yl-4,5-dihydroimidazo[1,5,4-de][1,4]benzoxazin-2-yl]-2,5-dihydro-1H-pyrrole-1-carboxylate] | < 100 | < 100 |  |  | 
13 | Cc1noc(C)c1-c1ccc2nc(N3CC(NC(=O)C(C)C)C3)n3c2c1OC[C@@H]3c1ccccn1 [Example 233, N-{1-[(4S)-7-(3,5-dimethylisoxazol-4-yl)-4-pyridin-2-yl-4,5-dihydroimidazo[1,5,4-de][1,4]benzoxazin-2-yl]azetidin-3-yl}-2-methylpropanamide] | < 100 | < 100 |  |  | 
14 | C=Cc1nc2ccc(-c3c(C)noc3C)c3c2n1[C@@H](c1ccccn1)CO3 [Example 88, (4S)-7-(3,5-Dimethylisoxazol-4-yl)-4-pyridin-2-yl-2-vinyl-4,5-dihydroimidazo[1,5,4-de][1,4]benzoxazine] | < 100 | < 100 |  |  | 
15 | Cc1noc(C)c1-c1ccc2[nH]c(=O)n3c2c1OC(C)C3c1ccccn1 (stereo not drawn) [Example 75, 7-(3,5-dimethylisoxazol-4-yl)-5-methyl-4-pyridin-2-yl-4,5-dihydroimidazo[1,5,4-de][1,4]benzoxazin-2(1H)-one] | < 100 | < 100 |  |  | 
16 | Cc1noc(C)c1-c1ccc2nc(C3CCCN(C(=O)C4CC4)C3)n3c2c1OC[C@@H]3c1ccccn1 (mixture of isomers) [Example 118, (4S)-2-[1-(cyclopropylcarbonyl)piperidin-3-yl]-7-(3,5-dimethylisoxazol-4-yl)-4-pyridin-2-yl-4,5-dihydroimidazo[1,5,4-de][1,4]benzoxazine (mixture of diastereomers)] | < 100 | < 100 |  |  | 
17 | Cc1cnn(C)c1-c1ccc2[nH]c(=O)n3c2c1OCC3c1ccccn1 (stereo not drawn) [Example 44, 7-(1,4-Dimethyl-1H-pyrazol-5-yl)-4-pyridin-2-yl-4,5-dihydroimidazo[1,5,4-de][1,4]benzoxazin-2(1H)-one] | 1000 to 10000 | 100 to 1000 |  |  | 
18 | Cc1noc(CF)c1-c1ccc2[nH]c(=O)n3c2c1OCC3c1ccccn1 (stereo not drawn) [Example 125, 7-[5-(Fluoromethyl)-3-methylisoxazol-4-yl]-4-pyridin-2-yl-4,5-dihydroimidazo[1,5,4-de][1,4]benzoxazin-2(1H)-one trifluoroacetate] | 1000 to 10000 | < 100 |  |  | 
19 | Cc1noc(C)c1-c1cc(C)c2[nH]c(=O)n3c2c1OCC3c1ccccc1 (stereo not drawn) [Example 46, 7-(3,5-Dimethylisoxazol-4-yl)-9-methyl-4-phenyl-4,5-dihydroimidazo[1,5,4-de][1,4]benzoxazin-2(1H)-one] | < 100 | < 100 |  |  | 
20 | Cc1noc(C)c1-c1cc(CNS(C)(=O)=O)c2[nH]c(=O)n3c2c1OC[C@@H]3c1ccccn1 [Example 141, N-{[(4S)-7-(3,5-Dimethylisoxazol-4-yl)-2-oxo-4-pyridin-2-yl-1,2,4,5-tetrahydroimidazo[1,5,4-de][1,4]benzoxazin-9-yl]methyl}methanesulfonamide] | < 100 | < 100 |  |  | 
21 | COCC(=O)NCc1cc(-c2c(C)noc2C)c2c3c1[nH]c(=O)n3[C@@H](c1ccccn1)CO2 [Example 140, N-{[(4S)-7-(3,5-Dimethylisoxazol-4-yl)-2-oxo-4-pyridin-2-yl-1,2,4,5-tetrahydroimidazo[1,5,4-de][1,4]benzoxazin-9-yl]methyl}-2-methoxyacetamide] | < 100 | < 100 |  |  | 
22 | Cc1noc(C)c1-c1ccc2nc(C3CCN(S(C)(=O)=O)C3)n3c2c1OC[C@@H]3c1ccccn1 (mixture of isomers) [Example 115, (4S)-7-(3,5-dimethylisoxazol-4-yl)-2-[1-(methylsulfonyl)pyrrolidin-3-yl]-4-pyridin-2-yl-4,5-dihydroimidazo[1,5,4-de][1,4]benzoxazine (mixture of diastereomers)] | < 100 | < 100 |  |  | 
23 | Cc1noc(C)c1-c1ccc2[nH]c(=O)n3c2c1OCC3C1CCCCN1 (single isomer, unassigned) [Example 63A, 7-(3,5-Dimethylisoxazol-4-yl)-4-piperidin-2-yl-4,5-dihydroimidazo[1,5,4-de][1,4]benzoxazin-2(1H)-one 2,2,2-trifluoroacetate] |  |  | 100 to 1000 | 100 to 1000 | 
24 | Cc1noc(C)c1-c1cc(F)c2nc(N3CCC(O)C3)n3c2c1OCC3c1cccnc1 (stereo not drawn) [Example 157, 1-[7-(3,5-Dimethylisoxazol-4-yl)-9-fluoro-4-pyridin-3-yl-4,5-dihydroimidazo[1,5,4-de][1,4]benzoxazin-2-yl]pyrrolidin-3-ol] | < 100 | < 100 |  |  | 
25 | Cc1noc(C)c1-c1ccc2[nH]c(=O)n3c2c1OC(C)(C)C3c1ccccn1 (single isomer, unassigned) [Example 61A, 7-(3,5-Dimethylisoxazol-4-yl)-5,5-dimethyl-4-pyridin-2-yl-4,5-dihydroimidazo[1,5,4-de][1,4]benzoxazin-2(1H)-one] | < 100 | < 100 |  |  | 
26 | Cc1noc(C)c1-c1ccc2nc(C3CCN(C(=O)OC(C)(C)C)C3)n3c2c1OC[C@@H]3c1ccccn1 (single isomer, unassigned; diastereoisomer 1) [Example 101A] | < 100 | < 100 |  |  | 
27 | CNC(=O)C1(c2ccccn2)COc2c(-c3c(C)noc3C)ccc3[nH]c(=O)n1c23 (stereo not drawn) [Example 71, 7-(3,5-Dimethylisoxazol-4-yl)-N-methyl-2-oxo-4-pyridin-2-yl-1,2,4,5-tetrahydroimidazo[1,5,4-de][1,4]benzoxazine-4-carboxamide 2,2,2-trifluoroacetate] | 100 to 1000 |  |  |  | < 100
